Measured values published in US6630469B2, “5-HT7 receptor antagonists” (Bristol-Myers Squibb Company, priority 2000, dated 2003).
“And” between values parts separate entries of the source, which are not always exact repeats. Equal values may be shown once.

Molecular target: T1, human 5-HT7 receptor (Homo sapiens, UniProt P34969)
T1 construct: expressed in transfected cells; host or cells: CHO cells
Assay: 5-HT7 Receptor Binding Assay
Settings: membranes of CHO cells expressing human 5-HT7 receptor; 1 nM 3H-5-carboxamidotryptamine; 25° C., 60 minutes
Method: 5-HT7 Receptor Binding Assay
Membranes are prepared for binding using the human 5-HT7 receptor expressed in CHO cells. Cells are collected and ruptured using a dounce homogenizer. The cells are spun at 18000× g for 10 minutes and the pellet is resuspended in assay buffer, frozen in liquid nitrogen and kept at −80° C. until the day of the assay.
A total of 30 ug protein is used per well. The assay is carried out in 96-deep-well plates. The assay buffer is 50 mM HEPES. The membrane preparation is incubated at 25° C. for 60 minutes with 0.1 nM to 1000 nM test compound and 1 nM ^3H-5-carboxamidotryptamine. 10 uM serotonin is used as blocking agent to determine non-specific binding. The reaction is terminated by the addition of 1 ml of ice cold 5OmM HEPES buffer and rapid filtration through a Brandel Cell Harvester using Whatman GF/B filters. The filter pads are counted in an LKB Trilux liquid scintillation counter. IC50 values are determined using non-linear regression by Exel-fit.

T1 sequence (P34969 whole entry): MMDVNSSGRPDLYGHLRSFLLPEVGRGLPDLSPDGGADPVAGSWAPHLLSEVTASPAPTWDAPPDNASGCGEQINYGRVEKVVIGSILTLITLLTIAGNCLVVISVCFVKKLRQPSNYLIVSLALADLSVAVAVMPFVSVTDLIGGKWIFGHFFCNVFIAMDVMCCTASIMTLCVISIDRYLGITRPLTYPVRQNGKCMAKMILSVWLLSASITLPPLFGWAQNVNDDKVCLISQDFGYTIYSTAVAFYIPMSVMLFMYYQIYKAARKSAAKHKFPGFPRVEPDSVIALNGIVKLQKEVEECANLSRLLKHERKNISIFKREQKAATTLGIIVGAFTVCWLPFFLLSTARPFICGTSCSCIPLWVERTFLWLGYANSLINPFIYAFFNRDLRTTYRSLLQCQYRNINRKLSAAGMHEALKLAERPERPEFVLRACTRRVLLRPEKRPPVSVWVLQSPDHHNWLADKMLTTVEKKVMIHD

| SMILES | IC50 |
| --- | --- |
| CC(Nc1nc(N)nc(NC[C@@H]2C[C@H]2c2ccncc2)n1)c1ccccc1 (mixture of isomers) [(±)-trans-N-(1-Phenyl-ethyl)-N′-(2-pyridin-4-yl-cyclopropylmethyl)-[1,3,5]triazine-2,4,6-triamine] | ≤ 50 nM |
| CC(Nc1nc(N)nc(NC[C@@H]2C[C@H]2c2ccccc2F)n1)c1ccccc1 (mixture of isomers) [(±)-trans-N-[2-(2-Fluoro-phenyl)-cyclopropylmethyl]-N′-(1-phenyl-ethyl)-[1,3,5]triazine-2,4,6-triamine] | ≤ 100 nM and > 50 nM |
| CC(Nc1nc(N)nc(NC[C@@H]2C[C@H]2c2ccc(F)cc2)n1)c1ccccc1 (mixture of isomers) [(±)-trans-N-[2-(4-Fluoro-phenyl)-cyclopropylmethyl]-N′-(1-phenyl-ethyl)-[1,3,5]triazine-2,4,6-triamine] | ≤ 100 nM and > 50 nM |
| C[C@H](Nc1nc(N)nc(NC[C@H]2C[C@@H]2c2ccccc2F)n1)c1ccccc1 [(S,S)-trans-N-[2-(2-Fluoro-phenyl)-cyclopropylmethyl]-N′-(1-phenyl-ethyl)-[1,3,5]triazine-2,4,6-triamine] | ≤ 50 nM |
| C[C@H](Nc1nc(N)nc(NC[C@H]2C[C@@H]2c2ccc(F)cc2)n1)c1ccccc1 [(S,S)-trans-N-[2-(4-Fluoro-phenyl)-cyclopropylmethyl]-N′-(1-phenyl-ethyl)-[1,3,5]triazine-2,4,6-triamine] | ≤ 50 nM |
| CC(Nc1ccnc(NCCc2cccnc2)n1)c1ccccc1 (stereo not drawn) [Compound 1, N^4-(1-Phenylethyl)-N^2-[2-(3-pyridinyl)ethyl]pyrimidine-2,4-diamine] | 101 to 200 nM |
| c1ccc(CCNc2nccc(NCc3ccco3)n2)cc1 [Compound 2, N^4-(2-Furanylmethyl)-N^2-(2-phenylethyl)pyrimidine-2,4-diamine] | 101 to 200 nM |
| CC(Nc1ccnc(NCCc2c[nH]c3ccc(F)cc23)n1)c1ccccc1 (stereo not drawn) [Compound 3] | 101 to 200 nM |
| c1ccc(OCCNc2nccc(NCc3ccco3)n2)cc1 [Compound 4, N^4-(2-Furanylmethyl)-N^2-(2-phenoxyethyl)pyrimidine-2,4-diamine] | 101 to 200 nM |
| NC(=O)c1cccc(CNc2ccnc(NCCOc3ccccc3)n2)c1 [Compound 6, N^4-[3-(Aminocarbonyl)phenylmethyl]-N^2-(2-phenoxyethyl)pyrimidine-2,4-diamine] | 51 to 100 nM |
| CC(Nc1nccc(NCCc2c[nH]c3ccccc23)n1)c1ccccc1 (stereo not drawn) [Compound 7, N^4-[2-(1H-Indol-3-yl)ethyl]-N^2-(1-phenylethyl)pyrimidine-2,4-diamine] | 51 to 100 nM |
| CC(Nc1ccnc(NCCc2cccc(Br)c2)n1)c1ccccc1 (stereo not drawn) [Compound 8, N^2-[2-(3-Bromophenyl)ethyl]-N^4-(1-phenylethyl)pyrimidine-2,4-diamine] | 51 to 100 nM |
| CC(Nc1ccnc(NCCc2ccc(Br)cc2)n1)c1ccccc1 (stereo not drawn) [Compound 9, N^2-[2-(4-Bromophenyl)ethyl]-N^4-(1-phenylethyl)pyrimidine-2,4-diamine] | 51 to 100 nM |
| CC(Nc1ccnc(NC2Cc3ccccc3C2)n1)c1ccccc1 (stereo not drawn) [Compound 10, N^2-(Indan-2-yl)-N4-(1-phenylethyl)pyrimidine-2,4-diamine] | 51 to 100 nM |
| c1ccc(CCNc2nccc(NCc3cccnc3)n2)cc1 [Compound 11, N^2-(2-Phenylethyl)-N^4-(3-pyridinylmethyl)pyrimidine-2,4-diamine] | 51 to 100 nM |
| CC(Nc1ccnc(NCCc2ccccn2)n1)c1ccccc1 (stereo not drawn) [Compound 12, N^4-(1-Phenylethyl)-N^2-[2-(2-pyridinyl)ethyl]pyrimidine-2,4-diamine] | 51 to 100 nM |
| C[C@H](Nc1ccnc(NCCOc2ccccc2)n1)c1ccc(Br)cc1 [Compound 13, N^4-[(1S)-1-(4-Bromophenyl)ethyl]-N^2-(2-phenoxyethyl)pyrimidine-2,4-diamine] | ≤ 50 nM |
| CS(=O)(=O)Nc1cccc(CNc2ccnc(NCCOc3ccccc3)n2)c1 [Compound 14, N^4-{3-[(Methylsulfonyl)amino]phenylmethyl}-N^2-(2-phenoxyethyl)pyrimidine-2,4-diamine] | ≤ 50 nM |
| c1ccc(OCCNc2nccc(NCc3cccc4ccccc34)n2)cc1 [Compound 16, N^4-(1-Napthalenylmethyl)-N^2-(2-phenoxyethyl)pyrimidine-2,4-diamine] | ≤ 50 nM |
| C[C@H](Nc1ccnc(NCCOc2ccccc2)n1)c1cccc2ccccc12 [Compound 17, N^4-[(1S)-1-(1-Napthalenyl)ethyl]-N^2-(2-phenoxyethyl)pyrimidine-2,4-diamine] | ≤ 50 nM |
| c1ccc(OCCNc2nccc(NCc3cccs3)n2)cc1 [Compound 18, N^2-(2-Phenoxyethyl)-N^4-(2-thienylmethyl)pyrimidine-2,4-diamine] | ≤ 50 nM |

| SMILES | IC50 |
| --- | --- |
| c1ccc(OCCNc2nccc(NCc3ccncc3)n2)cc1 [Compound 19, N^2-(2-Phenoxyethyl)-N^4-(4-pyridinylmethyl)pyrimidine-2,4-diamine] | ≤ 50 nM |
| c1ccc(OCCNc2nccc(NCc3cccnc3)n2)cc1 [Compound 20, N^2-(2-Phenoxyethyl)-N^4-(3-pyridinylmethyl)pyrimidine-2,4-diamine] | ≤ 50 nM |
| CC(Nc1ccnc(NCCc2cccc(O)c2)n1)c1ccccc1 (stereo not drawn) [Compound 21, N^2-[2-(3-Hydroxyphenyl)ethyl]-N^4-(1-phenylethyl)pyrimidine-2,4-diamine] | ≤ 50 nM |
| CC(Nc1ccnc(NCCc2cccc(C#N)c2)n1)c1ccccc1 (stereo not drawn) [Compound 22, N^2-[2-(3-Cyanophenyl)ethyl]-N^4-(1-phenylethyl)pyrimidine-2,4-diamine] | ≤ 50 nM |
| CC(Nc1ccnc(NCCC2=CCCCC2)n1)c1ccccc1 (stereo not drawn) [Compound 23, N^2-[2-(1-Cyclohexenyl)ethyl]-N^4-(1-phenylethyl)pyrimidine-2,4-diamine] | ≤ 50 nM |
| C[C@H](Nc1ccnc(NCCc2ccccc2)n1)c1cccc2ccccc12 [Compound 24, N^4-[(1S)-1-(1-Napthalenyl)ethyl]-N^2-(2-phenylethyl)pyrimidine-2,4-diamine] | ≤ 50 nM |
| Ic1cccc(CNc2ccnc(NCCc3ccccc3)n2)c1 [Compound 25, N^4-(3-Iodophenylmethyl)-N^2-(2-phenylethyl)pyrimidine-2,4-diamine] | ≤ 50 nM |
| Brc1cccc(CNc2ccnc(NCCc3ccccc3)n2)c1 [Compound 26, N^4-(3-Bromophenylmethyl)-N^2-(2-phenylethyl)pyrimidine-2,4-diamine] | ≤ 50 nM |
| c1ccc(CCNc2nccc(NCc3cccs3)n2)cc1 [Compound 27, N^2-(2-Phenylethyl)-N^4-(2-thienylmethyl)pyrimidine-2,4-diamine] | ≤ 50 nM |
| CC(Nc1ccnc(NCCn2ccc3ccccc32)n1)c1ccccc1 (stereo not drawn) [Compound 28, N^2-[2-(1H-Indol-1-yl)ethyl]-N^4-(1-phenylethyl)pyrimidine-2,4-diamine] | ≤ 50 nM |
| CC(Nc1ccnc(NCCc2cccs2)n1)c1ccccc1 (stereo not drawn) [Compound 29, N^4-(1-Phenylethyl)-N^2-[2-(2-thienyl)ethyl]pyrimidine-2,4-diamine] | ≤ 50 nM |
| CC(Nc1ccnc(N(C)CCc2c[nH]c3ccccc23)n1)c1ccccc1 (stereo not drawn) [Compound 30, N^2-[2(1H-Indol-3-yl)ethyl]-N^2-(methyl)-N^4-(1-phenylethyl)pyrimidine-2,4-diamine] | ≤ 50 nM |
| CC(Nc1ccnc(NCCc2c[nH]c3cc(F)ccc23)n1)c1ccccc1 (stereo not drawn) [Compound 31, N^2-[2-(6-Fluoro-1H-indol-3-yl)ethyl]-N^4-(1-phenylethyl)pyrimidine-2,4-diamine] | ≤ 50 nM |
| CC[C@H](Nc1nc(N)nc(NCCc2ccc(Cl)cc2)n1)c1ccccc1 [Compound 32, N^2-[2-(4-Chlorophenyl)ethyl]-N^4-[(1S)-1-phenylpropyl]-1,3,5-triazine-2,4,6-triamine] | 101 to 200 nM |
| CC[C@H](Nc1nc(N)nc(NCCc2ccc(Cl)c(Cl)c2)n1)c1ccccc1 [Compound 33, N^2-[2-(3,4-Dichlorophenyl)ethyl]-N^4-[(1S)-1-phenylpropyl]-1,3,5-triazine-2,4,6-triamine] | 101 to 200 nM |
| Cc1ccc(CCNc2nc(N)nc(N[C@@H](C)c3ccc(Br)cc3)n2)cc1 [Compound 34, N^2-[(1S)-1-(4-Bromophenyl)ethyl]-N^4-[2-(4-methylphenyl)ethyl]-1,3,5-triazine-2,4,6-triamine] | 101 to 200 nM |
| CC[C@H](Nc1nc(N)nc(NCC(C)c2ccccc2)n1)c1ccccc1 (stereo partly drawn) [Compound 35, N^2-[(1S)-1-Phenylpropyl]-N^4-(2-phenylpropyl)-1,3,5-triazine-2,4,6-triamine] | 101 to 200 nM |
| CC[C@H](Nc1nc(N)nc(NCCc2cccc(C(F)(F)F)c2)n1)c1ccccc1 [Compound 36, N^2-[(1S)-1-Phenylpropyl]-N^4-[2-(3-(trifluoromethyl)phenyl)ethyl]-1,3,5-triazine-2,4,6-triamine] | 101 to 200 nM |
| CC(CNc1nc(N)nc(N[C@@H](C)c2ccccc2)n1)c1ccccc1 (stereo partly drawn) [Compound 37, N^2-[(1S)-1-Phenylethyl]-N^4-(2-phenylpropyl)-1,3,5-triazine-2,4,6-triamine] | 101 to 200 nM |
| C[C@H](Nc1nc(N)nc(NCCNc2ccccc2)n1)c1cccc2ccccc12 [Compound 38, N^2-[(1S)-1-(1-Napthalenyl)ethyl]-N^4-[2-(phenylamino)ethyl]-1,3,5-triazine-2,4,6-triamine] | 101 to 200 nM |
| C[C@H](Nc1nc(N)nc(NCCc2ccc(Br)cc2)n1)c1ccc([N+](=O)[O-])cc1 [Compound 39, N^2-[2-(4-Bromophenyl)ethyl]-N^4-[(1S)-1-(4-nitrophenyl)ethyl]-1,3,5-triazine-2,4,6-triamine] | 101 to 200 nM |
